The values below come from patent US20230119479A1, “A HISTONE DEACETYLASE INHIBITOR HAVING A NITROGEN-CONTAINING AROMATIC HETEROCYCLYL GROUP” (SHIONOGI & CO., LTD., priority 2019, published 2023).

Data set [1] deals with T1, HDAC2 Human recombinant C-terminal FLAG-tag (Homo sapiens, UniProt Q92769).
T1 construct: FLAG (C); purchased BPS Bioscience 50052
Briefly: Measurement of HDAC2 enzyme inhibitory activity (HTRF). To be noted: recombinant HDAC2, H3K9ac peptide, 3 hours room temperature; read-out: HDAC2 IC50. Format: biochemical. A digest of the protocol: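 Compounds were tested at 8 points in 3-fold dilutions from 99 μM final (n=2) against FLAG-tagged HDAC2 with biotinylated H3K9ac (1-21) peptide (0.6 μM as added). The reaction ran 3 h at room temperature in Tris pH 8.0 buffer, then was stopped with SAHA. Deacetylated product was detected by HTRF (Eu-anti-H3K9me0 antibody, streptavidin-XL665) as the 665/615-620 nm ratio.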

The nature of data set [2]: Platelet toxicity test using human blood progenitor cells (WST). The format is cell-based. To be noted: human bone marrow CD34+ progenitor cells, maximum concentration 25 μM. On the procedure: Test Example 2: Platelet Toxicity Test Using Human Blood Progenitor Cells
Human bone marrow CD34+ progenitor cells (Lonza, 2M-101B) stored at −80° C. were thawed, spun down at 150 g for 10 minutes at 20° C., and a medium (StemSpan Expansion Supplement, STEM CELL TECHNOLOGIES, ST-02696) to which cytokines (StemSpan SFEM II, STEM CELL TECHNOLOGIES, ST-09655) was added was added to adjust to 2×10^4/well, the mixture was seeded in 12well non-coat dish (Corning, 3513), was incubated for 10 days at 37° C., 5% CO2. After 10 days, the cells were collected and spun down at 150 g for 10 minutes at 20° C., and a medium (StemSpan Expansion Supplement) containing cytokines (StemSpan SFEM II) was added so that the number of cells became 2×10^5 cells/ml. 50 μl of the cell suspension was seeded to each well of a 96-well plate (Corning, 3596) and allowed to stand overnight in an incubator at 37° C., 5% CO2. The next day, 50 μl of the test compound was treated to each well and allowed to stand for 48 hours in the incubator at 37° C., 5% CO2 (n=2). At this time, the test compound dissolved in 100% DMSO was serially diluted with DMSO at a 3-fold ratio, and then a medium containing cytokine was added to adjust the final concentration to 25, 8.33, 2.78, 0.93, 0.31, 0.1 μM. After that, 10 μl of WST (Cell count reagent SF, Nacalai Tesque Inc., 07553-44) was added to each well, and the mixture was allowed to stand in the incubator for 4 hours at 37° C., 5% CO2, and then the multi-label reader 2030 ARVO X4 (PerkinElmer) was used to measure the absorbance. At this time, the absorbance at 450 nm and the absorbance at 620 nm were obtained, and the difference between 450 nm and 620 nm was used as the measured value. The measured values were analyzed by Excel and TIBCO Spotfire, and IC50 values were calculated. At this time, for control (−), the well without cells was set as n=6 for one row, and the average value was calculated, and for control (+), the well in which DMSO was added to the cells so as to have the same concentration as the compound treatment group was set as n=6 for one row, and the average value was calculated and corrected for each plate. For the test compound, the average value of n=2 was used.

Data set [3] is described as follows: BA test (oral absorption). The format is in vivo. To be noted: plasma; mice or rats; oral vs intravenous administration. On the procedure: Materials and methods for experiments to evaluate oral absorption (1) Experimental animals: mice or rats were used. (2) Rearing condition: mice or rats were allowed free access to solid feed and sterilized tap water. (3) Setting of dosage and grouping: Oral administration and intravenous administration were performed with the predetermined dosage. Grouping was set as below. (Dosage was changed per compound)
Oral administration 2 to 60 μmol/kg or 1 to 30 mg/kg (n=2 to 3)
Intravenous administration 1 to 30 μmol/kg or 0.5 to 10 mg/kg (n=2 to 3)
(4) Preparation of administration solutions: Oral administration was performed as suspension or solution. Intravenous administration was performed after solubilization. (5) Routes of administration: Oral administration was performed mandatory into the stomach by oral sonde. Intravenous administration was performed from caudal vein by syringes with needle. (6) Evaluation items: Blood was collected serially and concentration of a compound of the present invention in plasma was measured by LC/MS/MS. (7) Statistical analysis: About transition of concentration of a compound of the present invention in plasma, the area under the plasma concentration versus time curve (AUC) was calculated by non-linear least-squares method program, and bioavailability (BA) of a compound of the present invention was calculated from dosages and AUCs of the oral administration group and the intravenous administration group. The dilution concentration or the dilution solvent were changed as necessary.

Data set [4] has as its target T2, human ether-a-go-go related gene (hERG) channel (Homo sapiens, UniProt Q12809).
T2 construct: expressed in transfected cells; host or cells: CHO cells
Briefly: hERG test (whole cell patch clamp). Format: cell-based. To be noted: CHO cells expressing hERG; concentration not given. An excerpt:
For the purpose of assessing risk of an electrocardiogram QT interval prolongation of the compound of the present invention, effects of the compound of the present invention on delayed rectifier K^+ current (IKr), which plays an important role in the ventricular repolarization process, was studied using CHO cells expressing human ether-a-go-go related gene (hERG) channel.
After a cell was retained at a membrane potential of −80 mV by whole cell patch clamp method using an automated patch clamp system (QPatch; Sophion Bioscience A/S) and gave a leak potential of −50 mV, IKr induced by depolarization pulse stimulation at +20 mV for 2 seconds, and further, repolarization pulse stimulation at −50 mV for 2 seconds, was recorded. A vehicle, which was the 0.1% dimethyle sulfoxide solution in extracellular solution (NaCl: 145 mmol/L, KCl: 4 mmol/L, CaCl2: 2 mmol/L, MgCl2: 1 mmol/L, glucose:10 mmol/L, HEPES (4-(2-hydroxyethyl)-1-piperazineethanesulfonic acid): 10 mmol/L, pH7.4), or the compound of the present invention had been dissolved at an objective concentration in the extracellular solution was applied to the cell at room temperature for 7 minutes or more. From the recording IKr, an absolute value of the tail peak current was measured based on the current value at the resting membrane potential using analysis software (QPatch assay software; Sophion Bioscience A/S). Further, the % inhibition of tail peak current for the compound of the present invention relative to the tail peak current after application of the vehicle was calculated to assess influence of the compound of the present invention on IKr. The dilution concentration and dilution solvent were changed as necessary.

T1 sequence (Q92769 whole entry): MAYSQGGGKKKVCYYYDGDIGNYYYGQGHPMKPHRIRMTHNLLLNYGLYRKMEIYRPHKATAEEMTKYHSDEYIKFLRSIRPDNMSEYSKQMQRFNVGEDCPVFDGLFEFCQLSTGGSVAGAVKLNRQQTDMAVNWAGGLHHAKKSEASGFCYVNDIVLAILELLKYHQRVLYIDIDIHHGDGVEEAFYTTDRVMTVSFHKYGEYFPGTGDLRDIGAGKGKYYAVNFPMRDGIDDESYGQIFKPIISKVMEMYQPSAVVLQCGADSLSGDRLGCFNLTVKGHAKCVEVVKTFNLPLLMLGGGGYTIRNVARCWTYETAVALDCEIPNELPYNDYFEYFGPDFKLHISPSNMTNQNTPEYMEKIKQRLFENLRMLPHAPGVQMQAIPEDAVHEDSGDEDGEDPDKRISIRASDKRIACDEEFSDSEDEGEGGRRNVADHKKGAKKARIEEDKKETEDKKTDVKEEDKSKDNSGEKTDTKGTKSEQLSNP
T2 sequence (Q12809 whole entry): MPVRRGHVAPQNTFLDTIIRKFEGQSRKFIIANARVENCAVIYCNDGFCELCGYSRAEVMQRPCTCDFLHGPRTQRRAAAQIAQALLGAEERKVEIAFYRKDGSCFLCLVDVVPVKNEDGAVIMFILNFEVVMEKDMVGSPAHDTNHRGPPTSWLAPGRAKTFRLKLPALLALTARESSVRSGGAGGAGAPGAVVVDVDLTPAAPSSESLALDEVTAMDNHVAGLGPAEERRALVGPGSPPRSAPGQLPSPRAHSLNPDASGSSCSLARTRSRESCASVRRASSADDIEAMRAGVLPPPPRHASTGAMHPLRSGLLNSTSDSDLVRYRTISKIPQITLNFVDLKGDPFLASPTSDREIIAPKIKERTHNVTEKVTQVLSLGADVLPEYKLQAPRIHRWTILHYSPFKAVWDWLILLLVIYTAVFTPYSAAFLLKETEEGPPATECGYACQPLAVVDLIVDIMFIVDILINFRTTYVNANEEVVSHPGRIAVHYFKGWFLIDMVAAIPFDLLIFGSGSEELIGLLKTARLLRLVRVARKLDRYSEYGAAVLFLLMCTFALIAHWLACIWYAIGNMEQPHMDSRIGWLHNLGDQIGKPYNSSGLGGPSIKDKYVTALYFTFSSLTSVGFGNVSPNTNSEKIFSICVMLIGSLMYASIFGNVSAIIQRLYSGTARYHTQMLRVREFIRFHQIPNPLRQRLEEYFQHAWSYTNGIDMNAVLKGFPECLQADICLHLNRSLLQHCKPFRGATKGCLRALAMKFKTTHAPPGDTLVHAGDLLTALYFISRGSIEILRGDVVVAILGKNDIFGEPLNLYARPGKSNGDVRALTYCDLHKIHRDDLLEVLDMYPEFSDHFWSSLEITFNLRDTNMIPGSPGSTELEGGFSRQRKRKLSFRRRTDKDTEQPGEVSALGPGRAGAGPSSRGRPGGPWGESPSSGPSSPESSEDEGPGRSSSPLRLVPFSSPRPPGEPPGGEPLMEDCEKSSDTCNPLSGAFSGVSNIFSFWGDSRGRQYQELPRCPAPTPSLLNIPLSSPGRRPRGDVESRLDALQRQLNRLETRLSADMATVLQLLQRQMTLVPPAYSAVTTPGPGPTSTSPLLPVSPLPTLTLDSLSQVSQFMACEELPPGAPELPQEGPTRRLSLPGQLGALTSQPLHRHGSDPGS

For `Cn1cc(-c2cnc(C(=O)Nc3cc(-c4cccs4)ccc3N)cn2)cn1` [Compound I-006], the IC50 in data set [1] amounted to 0.054 µM. Further, the half-maximal inhibitory concentration (IC50) at 48 h in data set [2] is over 25 µM. In addition, the bioavailability in data set [3] was 35.6%. Further, in data set [4], the “% inhibition of tail peak current (IKr)” value stood at 14.3%.
